# Measurements from the supplement of paper PMC10307832.
# Key:
# Experiment in all cases: relative viability (nuclei count vs DMSO), 5 days (fraction); higher = more cells survive
# CX-5461 = compound: Cc1cnc(CNC(=O)c2c(=O)c3ccc(N4CCCN(C)CC4)nc3n3c2sc2ccccc23)cn1 [CX-5461]
# Procedure, shortened: (§1)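 Following overnight incubation at 37 °C, lung cancer cell lines in 1536-well plates were pinned with five library-drug doses (not always all listed) in √10 steps on vehicle-anchored plates. The cells then spent 5 days without medium change before a combined fix, permeabilisation and Hoechst stain, 4× imaging and MetaXpress nuclear counts. Viability is the treated-to-vehicle ratio of nuclei, taken as the median across plates. Only plates with control CV below 25% and at least one doubling passed.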
# IMD-0354 = compound: O=C(Nc1cc(C(F)(F)F)cc(C(F)(F)F)c1)c1cc(Cl)ccc1O [IMD-0354]
# Procedure, shortened: as §1
# CX-5461 + Trametinib = compound: Cc1cnc(CNC(=O)c2c(=O)c3ccc(N4CCCN(C)CC4)nc3n3c2sc2ccccc23)cn1 [CX-5461] + CC(=O)Nc1cccc(-n2c(=O)n(C3CC3)c(=O)c3c(Nc4ccc(I)cc4F)n(C)c(=O)c(C)c32)c1 [Trametinib] (partner 0.02 µM)
# Procedure, shortened: (§2)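 Relative viability was taken as the ratio of nuclei in treated wells to nuclei in vehicle wells. Lung cancer cell lines in 1536-well plates received compounds by pin tool one day after seeding, either one drug alone or a fixed anchor-drug dose plus five library-drug doses (not always all listed) in √10 steps. Nuclei were counted on 4× images after 5 days of treatment, and values are medians of duplicate plates.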
# IMD-0354 + Navitoclax = compound: O=C(Nc1cc(C(F)(F)F)cc(C(F)(F)F)c1)c1cc(Cl)ccc1O [IMD-0354] + CC1(C)CCC(c2ccc(Cl)cc2)=C(CN2CCN(c3ccc(C(=O)NS(=O)(=O)c4ccc(N[C@H](CCN5CCOCC5)CSc5ccccc5)c(S(=O)(=O)C(F)(F)F)c4)cc3)CC2)C1 [Navitoclax] (partner 0.5 µM)
# Procedure, shortened: as §2
Cell Line,relative viability (CX-5461; 0.01 µM),relative viability (CX-5461; 0.03162 µM),relative viability (CX-5461; 0.1 µM),relative viability (CX-5461; 0.3162 µM),relative viability (CX-5461; 1 µM),relative viability (IMD-0354; 0.04 µM),relative viability (IMD-0354; 0.1265 µM),relative viability (IMD-0354; 0.4 µM),relative viability (IMD-0354; 1.265 µM),relative viability (IMD-0354; 4 µM),relative viability (CX-5461 + Trametinib; first compound 0.01 µM),relative viability (CX-5461 + Trametinib; first compound 0.03162 µM),relative viability (CX-5461 + Trametinib; first compound 0.1 µM),relative viability (CX-5461 + Trametinib; first compound 0.3162 µM),relative viability (CX-5461 + Trametinib; first compound 1 µM),relative viability (IMD-0354 + Navitoclax; first compound 0.04 µM),relative viability (IMD-0354 + Navitoclax; first compound 0.1265 µM),relative viability (IMD-0354 + Navitoclax; first compound 0.4 µM),relative viability (IMD-0354 + Navitoclax; first compound 1.265 µM),relative viability (IMD-0354 + Navitoclax; first compound 4 µM)
NCI-H1395,0.978,0.853,0.816,0.475,0.588,1.15,0.989,0.823,0.324,0.296,1.09,0.821,1.07,0.741,0.71,1.15,1.24,0.931,0.389,0.311
NCI-H2126,1,1.06,1.03,0.991,0.972,1.03,0.981,0.848,0.484,0.387,0.591,0.628,0.591,0.557,0.526,0.905,0.817,0.673,0.79,0.269
NCI-H3122,0.977,1.02,0.965,1.01,0.831,1.12,1.06,0.723,0.313,0.151,0.21,0.213,0.205,0.248,0.186,1.01,1.09,0.829,0.987,0.155
NCI-H1975,1.02,0.974,0.905,0.961,0.714,0.949,0.986,0.625,0.211,0.212,0.39,0.317,0.367,0.395,0.298,1.28,1.19,0.528,0.44,0.184
NCI-H2170,1.03,1.02,1.08,1,1.02,0.956,1.02,0.777,0.806,0.226,0.987,0.976,0.971,0.952,0.862,0.608,0.585,0.562,0.644,0.274
LU99A,0.974,0.95,1.23,0.603,0.356,0.726,0.95,0.788,0.326,0.236,0.596,0.488,0.477,0.389,0.634,0.644,0.808,0.654,0.479,0.148
NCI-H2347,1.02,1.04,1.04,0.937,0.908,1.1,1.02,0.738,0.511,0.4,0.273,0.279,0.292,0.272,0.223,0.818,0.838,0.55,0.35,0.255
NCI-H2009,1.02,1.04,0.879,1.02,0.75,1.02,0.929,0.738,0.19,0.131,0.341,0.271,0.286,0.301,0.243,1.22,1.02,0.915,0.642,0.115
HCC-15,1.01,1.08,0.978,0.833,0.689,0.949,0.935,0.663,0.16,0.15,0.419,0.31,0.383,0.376,0.34,0.659,0.652,0.362,0.297,0.166
HCC-44,0.956,0.998,0.964,0.98,0.839,0.967,1.03,0.497,0.301,0.194,0.921,1.25,1.11,1.14,1.05,0.953,0.951,0.446,0.203,0.215
COR-L23,1.03,1.07,0.758,0.973,0.583,0.922,1,0.422,0.13,0.14,0.779,0.727,0.556,0.435,0.366,0.891,0.961,0.375,0.0982,0.147
HCC-78,1.01,0.879,0.941,0.907,0.902,0.988,0.989,0.579,0.586,0.487,0.76,0.82,0.88,0.753,0.71,0.691,0.761,0.509,0.571,0.24
NCI-H727,1.07,1.03,1.03,0.875,0.78,0.838,0.908,0.732,0.494,0.509,0.375,0.389,0.4,0.356,0.379,0.407,0.319,0.423,0.165,0.205
NCI-H2087,1.26,1.16,1.02,1.01,0.717,1.02,1,0.382,0.11,0.152,0.173,0.268,0.201,0.209,0.186,0.918,0.815,0.363,0.111,0.158
BEN,1.04,1,1.06,0.979,0.937,1.22,0.903,0.64,0.463,0.277,0.936,0.96,1.11,1.17,1.04,0.0569,0.0541,0.0659,0.0403,0.0444
EKVX,1.11,1.05,1.05,0.677,0.915,1,0.972,0.589,0.915,0.358,0.389,0.306,0.482,–,0.265,0.967,1.11,–,0.573,0.206

Cell Line,relative viability (CX-5461; 0.01 µM),relative viability (CX-5461; 0.03162 µM),relative viability (CX-5461; 0.1 µM),relative viability (CX-5461; 0.3162 µM),relative viability (CX-5461; 1 µM),relative viability (IMD-0354; 0.04 µM),relative viability (IMD-0354; 0.1265 µM),relative viability (IMD-0354; 0.4 µM),relative viability (IMD-0354; 1.265 µM),relative viability (IMD-0354; 4 µM),relative viability (CX-5461 + Trametinib; first compound 0.01 µM),relative viability (CX-5461 + Trametinib; first compound 0.03162 µM),relative viability (CX-5461 + Trametinib; first compound 0.1 µM),relative viability (CX-5461 + Trametinib; first compound 0.3162 µM),relative viability (CX-5461 + Trametinib; first compound 1 µM),relative viability (IMD-0354 + Navitoclax; first compound 0.04 µM),relative viability (IMD-0354 + Navitoclax; first compound 0.1265 µM),relative viability (IMD-0354 + Navitoclax; first compound 0.4 µM),relative viability (IMD-0354 + Navitoclax; first compound 1.265 µM),relative viability (IMD-0354 + Navitoclax; first compound 4 µM)
LXF-289,0.988,1.01,1.06,0.87,0.745,1.02,1.05,0.86,0.337,0.207,0.757,0.647,0.751,–,0.677,0.927,0.88,0.789,0.666,0.0776
NCI-H1650,0.965,0.948,0.406,0.794,0.205,0.96,0.771,0.616,0.252,0.174,0.564,0.447,0.532,0.678,0.207,1.42,1.06,0.682,0.149,0.171
NCI-H2085,1.07,1.01,0.992,1.02,0.869,1.06,0.975,0.775,0.449,0.415,0.516,0.564,0.464,0.527,0.615,1.17,1.16,0.859,0.62,0.251
NCI-H1944,1,1.14,0.994,0.358,0.318,0.866,0.981,0.653,0.74,0.156,0.47,0.406,0.419,0.314,0.448,0.962,1.13,–,1.01,0.125
LC-2-ad,0.981,1.02,0.955,0.978,0.749,0.948,0.976,0.579,0.193,0.17,0.901,0.96,0.931,0.912,0.847,0.408,0.395,0.199,0.0893,0.105
COR-L 105,0.933,0.894,0.82,0.607,0.508,1.05,0.832,0.738,0.463,0.293,0.448,0.47,0.429,0.388,0.352,0.731,0.684,0.644,0.374,0.269
NCI-H1355,1.03,1.06,0.96,0.521,0.671,1.12,0.946,0.716,0.368,0.221,0.456,0.496,0.462,0.414,0.435,1.03,0.932,0.82,0.916,0.185
H3255,1.02,0.94,0.921,0.609,0.909,0.911,1.01,0.621,0.601,0.362,0.614,0.639,0.671,–,0.558,0.394,0.715,0.408,0.089,0.144
NCI-H1993,1.06,1.08,1.01,0.952,0.993,0.939,0.89,0.648,0.555,0.567,0.525,0.448,0.476,0.431,0.544,0.975,0.792,0.722,0.552,0.576
NCI-H1734,1.02,1.05,1,0.694,0.579,1.09,0.969,0.731,0.306,0.142,0.716,0.781,0.788,0.599,0.711,0.905,0.86,0.446,0.412,0.133
HOP-62,1.02,1.05,1.08,0.893,0.899,1.03,1.08,0.639,0.38,0.13,0.404,0.37,0.388,0.419,0.363,1.02,0.976,0.504,0.78,0.295
LOU-NH91,1.07,1.01,0.997,0.574,0.845,1.1,1,0.353,0.252,0.273,0.796,0.813,0.777,0.613,0.78,0.734,0.712,0.396,0.135,0.165
ChaGo-K-1,1.02,0.967,1.04,0.571,0.552,1.12,1.08,0.751,0.339,0.267,0.875,0.978,0.874,0.922,0.849,1.43,1.48,0.672,0.296,0.327
NCI-H2228,1.03,1.01,0.948,0.855,0.205,1.07,0.888,0.721,0.266,0.294,0.553,0.489,0.418,0.432,0.236,0.738,1.12,0.589,1.27,0.355
PC-14,1.08,1.04,0.956,1.01,0.599,1.18,1.05,0.52,0.317,0.129,0.718,0.821,0.391,0.76,0.151,1.04,0.937,0.425,0.192,0.103
